According to publication PMC4780864, “Family-wide Structural Analysis of Human Numb-Associated Protein Kinases” (Structure(London, England:1993), 2016):

How the values were obtained:
AAK1 [1] = target: T1, AAK1 (Homo sapiens, UniProt Q2M2I8); assay: biochemical; design: kinase domain; Thermal shift assay (DSF, SYPRO Orange), 2 uM kinase domain, mean delta Tm of triplicates versus DMSO; conditions: for ΔTm at 12.5 µM: read-out: AAK1
Description: (§1) All measurements were performed in triplicate and mean values were reported for all compounds (Table S1). […] However, NAKs are often omitted from selectivity panels, including commercial screens.

BIKE [2] = target: T2, BIKE (Homo sapiens, UniProt Q9NSY1, K320A/K321A); assay: co-crystal structure ([…] Å); ITC; thermal shift; type: binding
T2 construct: gene BMP2K; BIKE38–345 (kinase domain)

MPSK1 = target: T3, MPSK1 (Homo sapiens, UniProt O75716); assay: biochemical; design: Thermal shift assay (DSF, SYPRO Orange), 2 uM kinase domain, mean delta Tm of triplicates versus DMSO; conditions: for ΔTm at 12.5 µM: read-out: MPSK1
T3 construct: gene STK16; catalytic domain-containing construct
Description: as §1

BIKE [3] = target: T4, BIKE (Homo sapiens, UniProt Q9NSY1); assay: biochemical; design: Thermal shift assay (DSF, SYPRO Orange), 2 uM kinase domain, mean delta Tm of triplicates versus DMSO; conditions: read-out: BIKE
T4 construct: gene BMP2K; catalytic domain-containing construct
Description: as §1

GAK = target: T5, GAK (Homo sapiens, UniProt O14976); assay: biochemical; design: Thermal shift assay (DSF, SYPRO Orange), 2 uM kinase domain, mean delta Tm of triplicates versus DMSO; conditions: read-out: GAK
T5 construct: catalytic domain-containing construct
T5 sequence (O14976 1-1311): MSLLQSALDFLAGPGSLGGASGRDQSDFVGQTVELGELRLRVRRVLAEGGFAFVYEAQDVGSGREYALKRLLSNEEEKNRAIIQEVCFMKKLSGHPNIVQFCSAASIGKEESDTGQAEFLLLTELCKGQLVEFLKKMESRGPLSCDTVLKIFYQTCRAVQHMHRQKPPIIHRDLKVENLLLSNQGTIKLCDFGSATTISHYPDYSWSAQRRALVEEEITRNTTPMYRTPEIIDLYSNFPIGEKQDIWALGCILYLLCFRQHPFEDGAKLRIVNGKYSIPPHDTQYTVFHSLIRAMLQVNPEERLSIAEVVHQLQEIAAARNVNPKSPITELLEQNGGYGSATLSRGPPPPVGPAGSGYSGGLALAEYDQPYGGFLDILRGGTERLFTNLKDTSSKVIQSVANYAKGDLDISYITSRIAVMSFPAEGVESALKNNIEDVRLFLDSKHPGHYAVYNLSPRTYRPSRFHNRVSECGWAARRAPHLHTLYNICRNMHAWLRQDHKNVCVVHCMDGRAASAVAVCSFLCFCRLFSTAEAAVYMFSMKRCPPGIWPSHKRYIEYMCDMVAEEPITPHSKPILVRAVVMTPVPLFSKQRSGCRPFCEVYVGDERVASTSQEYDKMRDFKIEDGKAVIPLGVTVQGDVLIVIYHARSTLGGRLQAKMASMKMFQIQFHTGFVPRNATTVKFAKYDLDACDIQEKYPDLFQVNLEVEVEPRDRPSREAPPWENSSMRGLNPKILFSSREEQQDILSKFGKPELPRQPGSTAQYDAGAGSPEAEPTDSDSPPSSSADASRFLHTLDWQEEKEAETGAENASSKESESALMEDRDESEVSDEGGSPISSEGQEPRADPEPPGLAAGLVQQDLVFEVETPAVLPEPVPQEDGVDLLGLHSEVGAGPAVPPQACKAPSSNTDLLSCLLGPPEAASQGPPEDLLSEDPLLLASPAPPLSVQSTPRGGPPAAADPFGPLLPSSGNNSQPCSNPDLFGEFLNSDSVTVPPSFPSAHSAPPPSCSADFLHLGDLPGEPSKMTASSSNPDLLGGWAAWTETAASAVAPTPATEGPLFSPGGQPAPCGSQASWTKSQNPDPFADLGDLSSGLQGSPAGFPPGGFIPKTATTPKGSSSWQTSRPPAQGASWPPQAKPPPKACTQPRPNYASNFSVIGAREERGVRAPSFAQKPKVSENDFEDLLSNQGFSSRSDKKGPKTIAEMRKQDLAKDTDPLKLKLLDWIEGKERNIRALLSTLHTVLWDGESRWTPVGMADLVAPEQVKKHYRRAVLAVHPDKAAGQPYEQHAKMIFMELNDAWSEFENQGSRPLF
Description: as §1

AAK1 [4] = target: T1, AAK1; assay: ITC; thermal shift

T4 sequence (Q9NSY1 whole entry, the tested form may be a part): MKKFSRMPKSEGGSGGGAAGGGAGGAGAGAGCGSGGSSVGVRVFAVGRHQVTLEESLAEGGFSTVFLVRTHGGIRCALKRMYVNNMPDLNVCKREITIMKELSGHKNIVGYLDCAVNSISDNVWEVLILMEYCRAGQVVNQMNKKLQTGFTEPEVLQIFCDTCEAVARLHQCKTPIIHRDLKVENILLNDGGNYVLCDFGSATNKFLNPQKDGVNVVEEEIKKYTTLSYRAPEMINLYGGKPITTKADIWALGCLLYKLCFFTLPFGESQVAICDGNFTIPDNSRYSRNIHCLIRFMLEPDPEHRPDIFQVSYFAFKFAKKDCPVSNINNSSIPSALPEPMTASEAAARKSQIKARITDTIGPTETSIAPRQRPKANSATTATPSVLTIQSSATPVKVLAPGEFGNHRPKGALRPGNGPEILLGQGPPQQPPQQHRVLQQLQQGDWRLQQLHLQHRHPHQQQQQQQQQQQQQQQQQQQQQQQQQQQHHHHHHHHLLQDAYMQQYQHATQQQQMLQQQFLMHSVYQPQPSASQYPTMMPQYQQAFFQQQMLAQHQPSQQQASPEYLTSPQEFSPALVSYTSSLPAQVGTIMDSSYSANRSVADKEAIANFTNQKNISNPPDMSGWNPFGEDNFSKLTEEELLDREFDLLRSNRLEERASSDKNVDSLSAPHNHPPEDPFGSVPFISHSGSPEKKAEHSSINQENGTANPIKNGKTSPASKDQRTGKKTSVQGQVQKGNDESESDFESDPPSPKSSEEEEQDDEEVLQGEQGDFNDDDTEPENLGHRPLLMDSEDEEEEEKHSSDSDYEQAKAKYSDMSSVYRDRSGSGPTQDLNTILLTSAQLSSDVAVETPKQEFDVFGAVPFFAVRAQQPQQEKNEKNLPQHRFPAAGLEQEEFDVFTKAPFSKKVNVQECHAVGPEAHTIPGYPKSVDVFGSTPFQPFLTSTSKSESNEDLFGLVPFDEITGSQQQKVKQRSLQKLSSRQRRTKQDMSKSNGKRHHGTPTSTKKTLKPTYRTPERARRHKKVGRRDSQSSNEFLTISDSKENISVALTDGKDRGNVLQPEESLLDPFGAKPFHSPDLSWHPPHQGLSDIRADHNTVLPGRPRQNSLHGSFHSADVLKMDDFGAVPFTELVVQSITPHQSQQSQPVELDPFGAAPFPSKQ
T3 sequence (O75716 whole entry, the tested form may be a part): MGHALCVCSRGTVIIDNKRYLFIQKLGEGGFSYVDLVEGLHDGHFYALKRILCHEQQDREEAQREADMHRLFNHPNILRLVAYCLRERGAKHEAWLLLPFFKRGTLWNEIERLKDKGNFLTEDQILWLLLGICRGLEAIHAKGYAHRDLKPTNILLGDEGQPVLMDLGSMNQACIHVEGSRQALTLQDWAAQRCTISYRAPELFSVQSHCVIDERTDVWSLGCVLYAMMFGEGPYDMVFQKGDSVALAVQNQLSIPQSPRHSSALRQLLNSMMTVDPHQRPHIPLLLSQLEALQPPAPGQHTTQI
T1 sequence (Q2M2I8 27-365 limits assumed): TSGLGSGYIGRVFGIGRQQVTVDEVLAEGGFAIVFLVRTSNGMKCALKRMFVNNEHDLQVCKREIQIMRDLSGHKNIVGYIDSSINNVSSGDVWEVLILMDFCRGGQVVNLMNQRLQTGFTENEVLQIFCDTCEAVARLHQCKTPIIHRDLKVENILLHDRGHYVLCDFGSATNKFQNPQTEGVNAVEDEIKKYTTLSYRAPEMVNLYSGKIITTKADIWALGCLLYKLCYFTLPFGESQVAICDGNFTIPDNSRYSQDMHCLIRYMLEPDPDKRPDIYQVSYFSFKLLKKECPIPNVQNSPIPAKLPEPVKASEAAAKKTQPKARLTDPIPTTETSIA
T2 sequence (Q9NSY1 38-345 K320A/K321A): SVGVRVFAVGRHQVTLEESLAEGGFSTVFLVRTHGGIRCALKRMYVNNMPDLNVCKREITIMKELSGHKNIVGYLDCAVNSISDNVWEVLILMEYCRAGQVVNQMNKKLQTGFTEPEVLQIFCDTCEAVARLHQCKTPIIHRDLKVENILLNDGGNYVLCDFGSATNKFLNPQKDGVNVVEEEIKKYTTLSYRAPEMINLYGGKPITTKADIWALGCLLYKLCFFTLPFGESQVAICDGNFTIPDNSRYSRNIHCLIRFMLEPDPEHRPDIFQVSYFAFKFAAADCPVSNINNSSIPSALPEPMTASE

Row | Compound | ΔTm at 12.5 µM (AAK1 [1]) | Kd (BIKE [2]) | ΔTm at 12.5 µM (MPSK1) | ΔTm at 12.5 µM (BIKE [3]) | ΔTm at 12.5 µM (GAK) | Kd (AAK1 [4]) | AAK1 (AAK1 [1]; 12.5 µM) | MPSK1 (MPSK1; 12.5 µM)
1 | NC(=O)Nc1cc(-c2cccc(F)c2)sc1C(=O)N[C@H]1CCCNC1 [AZD7762] | 10.8 °C | 33.1 nM | 3.46 °C | 12.6 °C | 5.39 °C | 36.5 nM |  | 
2 | CCCS(=O)(=O)Nc1ccc(F)c(C(=O)c2c[nH]c3ncc(-c4ccc(Cl)cc4)cc23)c1F [Vemurafenib] | 2.06 °C |  | 5.18 °C | 4.24 °C | 2.66 °C |  |  | 
3 | CC[C@@H]1C(=O)N(C)c2cnc(Nc3ccc(C(=O)N[C@H]4CC[C@H](N5CCN(CC6CC6)CC5)CC4)cc3OC)nc2N1C(C)C [Volasertib] | 3.06 °C |  | 4.59 °C | 3.48 °C | 2.74 °C |  |  | 
4 | CCn1c(=O)c(-c2cc[nH]n2)cc2c(C)nc(N)nc21 [Voxtalisib] | 0.657 °C |  | 0.32 °C | 0.73 °C | 0.99 °C |  |  | 
5 | FC(F)c1nc2ccccc2n1-c1nc(N2CCOCC2)nc(N2CCOCC2)n1 [ZSTK474] | 0.383 °C |  | 1.24 °C | 0.633 °C | 0.02 °C |  |  | 
6 | CCS(=O)(=O)N1CC(CC#N)(n2cc(-c3ncnc4[nH]ccc34)cn2)C1 [baricitinib] |  |  |  | 10.2 °C | 2.06 °C |  | 8.293 °C | 4.053 °C
7 | COC(=O)c1ccc2c(c1)NC(=O)/C2=C(\Nc1ccc(N(C)C(=O)CN2CCN(C)CC2)cc1)c1ccccc1 [nintedanib] | 1.78 °C |  | 6.33 °C | 7.61 °C | 0.58 °C |  |  | 
